# In PMC6941823, “A dispensable paralog of succinate dehydrogenase subunit C mediates standing resistance towards a subclass of SDHI fungicides in Zymoseptoria tritici” (PLoS Pathogens, 2019):
# Read-outs that look alike come from different tables or passages of the source.
# What was measured:
# [1] = molecular target: SQR (SDHC / altC) of IPO323 pTet::SDHC3 transformant, repressed (Zymoseptoria tritici, UniProt A0A1X7RQW2+F9X9V6+F9XH52+O42772); assay: Succinate-quinone (SQR) SDHI sensitivity assay on purified mitochondria, IPO323 pTet::SDHC3 repressed; type: biochemical
# In short: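 Succinate:ubiquinone/DCPIP reductase inhibition measured on purified mitochondria from Zymoseptoria tritici strains carrying either a single C-subunit gene (ZtSDHC1, ZtSDHC1_A84I or ZtSDHC3) or both ZtSDHC1 and ZtSDHC3; pTet::SDHC3 transformant tested under repressed and induced conditions.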
# [2] = test system: Zymoseptoria tritici progeny isolates; type: cell-based; settings: for phenotype flag S (sensitive): 1 = sensitive; for Phenotype sensitive (S) flag: fluopyram 10 mg.L^-1 agar, 1 in S column; for phenotype flag, sensitive (S): growth on fluopyram 10 mg.L^-1 agar; for phenotype flag, sensitive (S) / Phenotyping Growth Fluopyram 10ppm Sensitive: 1 = scored sensitive; for Phenotype scored sensitive (S): agar growth on fluopyram 10 mg.L^-1, 1 = scored in this class
# Chain of SQR (SDHC / altC) of IPO323 pTet::SDHC3 transformant, repressed (F9XH52 44-187): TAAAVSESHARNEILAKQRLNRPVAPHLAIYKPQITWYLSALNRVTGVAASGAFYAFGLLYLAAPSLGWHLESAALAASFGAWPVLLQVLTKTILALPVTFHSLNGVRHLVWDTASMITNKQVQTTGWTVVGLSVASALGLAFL
# Chain of SQR (SDHC / altC) of IPO323 pTet::SDHC3 transformant, repressed (O42772 20-297): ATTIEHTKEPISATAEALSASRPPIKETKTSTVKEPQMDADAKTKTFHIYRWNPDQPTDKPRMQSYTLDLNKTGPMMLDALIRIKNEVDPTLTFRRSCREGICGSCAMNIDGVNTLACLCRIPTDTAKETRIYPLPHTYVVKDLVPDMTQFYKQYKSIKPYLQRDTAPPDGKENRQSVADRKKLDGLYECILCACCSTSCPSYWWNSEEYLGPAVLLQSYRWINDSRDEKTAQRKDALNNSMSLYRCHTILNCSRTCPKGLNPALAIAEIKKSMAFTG
# Chain of SQR (SDHC / altC) of IPO323 pTet::SDHC3 transformant, repressed (F9X9V6 1-193): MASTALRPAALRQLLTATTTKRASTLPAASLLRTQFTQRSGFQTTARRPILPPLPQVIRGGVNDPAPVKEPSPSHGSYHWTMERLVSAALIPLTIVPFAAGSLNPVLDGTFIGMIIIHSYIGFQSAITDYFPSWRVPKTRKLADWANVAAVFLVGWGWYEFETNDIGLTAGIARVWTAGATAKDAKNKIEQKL
# Chain of SQR (SDHC / altC) of IPO323 pTet::SDHC3 transformant, repressed (A0A1X7RQW2 36-181): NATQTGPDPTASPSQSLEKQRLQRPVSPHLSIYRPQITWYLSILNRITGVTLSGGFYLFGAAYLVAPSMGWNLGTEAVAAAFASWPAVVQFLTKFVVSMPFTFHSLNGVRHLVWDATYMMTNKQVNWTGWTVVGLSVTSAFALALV
# Chain of SQR (SDHC / altC) of IPO323 pTet::SDHC3 transformant, repressed (F9WWR1 41-643 partner): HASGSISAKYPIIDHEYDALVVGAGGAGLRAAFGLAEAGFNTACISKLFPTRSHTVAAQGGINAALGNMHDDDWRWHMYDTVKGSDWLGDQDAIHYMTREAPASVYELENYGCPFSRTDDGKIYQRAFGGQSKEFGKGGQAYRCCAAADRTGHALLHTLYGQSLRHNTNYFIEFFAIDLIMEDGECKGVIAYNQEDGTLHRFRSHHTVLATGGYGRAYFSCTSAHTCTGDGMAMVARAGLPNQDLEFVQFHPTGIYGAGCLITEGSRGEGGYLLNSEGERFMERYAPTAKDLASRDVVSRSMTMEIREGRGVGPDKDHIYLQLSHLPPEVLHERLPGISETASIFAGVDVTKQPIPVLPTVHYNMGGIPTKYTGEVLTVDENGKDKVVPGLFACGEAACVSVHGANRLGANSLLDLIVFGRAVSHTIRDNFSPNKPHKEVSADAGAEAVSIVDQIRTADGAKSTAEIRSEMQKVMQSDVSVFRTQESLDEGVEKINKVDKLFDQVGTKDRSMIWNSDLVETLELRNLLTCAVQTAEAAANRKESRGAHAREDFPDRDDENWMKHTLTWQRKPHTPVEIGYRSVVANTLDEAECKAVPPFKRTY
smiles,measurement,setting,value
O=C(NCCc1ncc(C(F)(F)F)cc1Cl)c1ccccc1C(F)(F)F [Fluopyram],"RF (resistance factor), pTet Repressed (SDHC / altC)",[1]; IC50 ratio compared to IPO323 values,1.8
same,IC50,"[1]; IPO323 pTet::SDHC3 transformant grown in presence of 30 mg.L^-1 doxycycline, mean of three ± SD",21.9 ± 7.7 nM
same,phenotype flag S (sensitive),"[2]; progeny isolate 25, cross IPO323XD024",1
same,phenotype flag S (sensitive),"[2]; progeny isolate 27, cross IPO323XD024",1
same,phenotype flag S (sensitive),"[2]; progeny isolate 28, cross IPO323XD024",1
same,phenotype flag S (sensitive),"[2]; progeny isolate 31, cross IPO323XD024",1
same,phenotype flag S (sensitive),"[2]; progeny isolate 32, cross IPO323XD024",1
same,phenotype flag S (sensitive),"[2]; progeny isolate 34, cross IPO323XD024",1
same,phenotype flag S (sensitive),"[2]; progeny isolate 37, cross IPO323XD024",1
same,phenotype flag S (sensitive),"[2]; progeny isolate 39, cross IPO323XD024",1
same,phenotype flag S (sensitive),"[2]; progeny isolate 40, cross IPO323XD024",1
same,phenotype flag S (sensitive),"[2]; progeny isolate 43, cross IPO323XD024",1
same,phenotype flag S (sensitive),"[2]; progeny isolate 46, cross IPO323XD024",1
same,phenotype flag S (sensitive),"[2]; progeny isolate 49, cross IPO323XD024",1
same,phenotype flag S (sensitive),"[2]; progeny isolate 50, cross IPO323XD024",1
same,phenotype flag S (sensitive),"[2]; progeny isolate 51, cross IPO323XD024",1
same,phenotype flag S (sensitive),"[2]; progeny isolate 53, cross IPO323XD024",1
same,phenotype flag S (sensitive),"[2]; progeny isolate 54, cross IPO323XD024",1
same,phenotype flag S (sensitive),"[2]; progeny isolate 55, cross IPO323XD024",1
same,phenotype flag S (sensitive),"[2]; progeny isolate 56, cross IPO323XD024",1
same,phenotype flag S (sensitive),"[2]; progeny isolate 57, cross IPO323XD024",1
same,phenotype flag S (sensitive),"[2]; progeny isolate 59, cross IPO323XD024",1
same,phenotype flag S (sensitive),"[2]; progeny isolate 60, cross IPO323XD024",1
same,phenotype flag S (sensitive),"[2]; progeny isolate 62, cross IPO323XD024",1
same,phenotype flag S (sensitive),"[2]; progeny isolate 63, cross IPO323XD024",1
same,phenotype flag S (sensitive),"[2]; progeny isolate 65, cross IPO323XD024",1
same,"phenotype scored sensitive (S), flag 1","[2]; progeny isolate 67, cross IPO323XD024, fluopyram 10 mg.L^-1 agar",1
same,"phenotype scored sensitive (S), flag 1","[2]; progeny isolate 71, cross IPO323XD024, fluopyram 10 mg.L^-1 agar",1
same,"phenotype scored sensitive (S), flag 1","[2]; progeny isolate 72, cross IPO323XD024, fluopyram 10 mg.L^-1 agar",1
same,"phenotype scored sensitive (S), flag 1","[2]; progeny isolate 75, cross IPO323XD024, fluopyram 10 mg.L^-1 agar",1
same,"phenotype scored sensitive (S), flag 1","[2]; progeny isolate 77, cross IPO323XD024, fluopyram 10 mg.L^-1 agar",1
same,"phenotype scored sensitive (S), flag 1","[2]; progeny isolate 78, cross IPO323XD024, fluopyram 10 mg.L^-1 agar",1
same,"phenotype scored sensitive (S), flag 1","[2]; progeny isolate 82, cross IPO323XD024, fluopyram 10 mg.L^-1 agar",1
same,"phenotype scored sensitive (S), flag 1","[2]; progeny isolate 83, cross IPO323XD024, fluopyram 10 mg.L^-1 agar",1
same,"phenotype scored sensitive (S), flag 1","[2]; progeny isolate 84, cross IPO323XD024, fluopyram 10 mg.L^-1 agar",1
same,"phenotype scored sensitive (S), flag 1","[2]; progeny isolate 88, cross IPO323XD024, fluopyram 10 mg.L^-1 agar",1
same,"phenotype scored sensitive (S), flag 1","[2]; progeny isolate 89, cross IPO323XD024, fluopyram 10 mg.L^-1 agar",1
same,"phenotype scored sensitive (S), flag 1","[2]; progeny isolate 90, cross IPO323XD024, fluopyram 10 mg.L^-1 agar",1
same,"phenotype scored sensitive (S), flag 1","[2]; progeny isolate 91, cross IPO323XD024, fluopyram 10 mg.L^-1 agar",1
same,"phenotype scored sensitive (S), flag 1","[2]; progeny isolate 92, cross IPO323XD024, fluopyram 10 mg.L^-1 agar",1
same,"phenotype scored sensitive (S), flag 1","[2]; progeny isolate 102, cross IPO323XD024, fluopyram 10 mg.L^-1 agar",1
same,"phenotype scored sensitive (S), flag 1","[2]; progeny isolate 103, cross IPO323XD024, fluopyram 10 mg.L^-1 agar",1
same,"phenotype scored sensitive (S), flag 1","[2]; progeny isolate 106, cross IPO323XD024, fluopyram 10 mg.L^-1 agar",1
same,"phenotype scored sensitive (S), flag 1","[2]; progeny isolate 107, cross IPO323XD024, fluopyram 10 mg.L^-1 agar",1
same,Phenotype sensitive (S) flag,[2]; progeny isolate 150 of cross IPO323XD024,1
same,Phenotype sensitive (S) flag,[2]; progeny isolate 151 of cross IPO323XD024,1
same,Phenotype sensitive (S) flag,[2]; progeny isolate 152 of cross IPO323XD024,1
same,Phenotype sensitive (S) flag,[2]; progeny isolate 153 of cross IPO323XD024,1
same,Phenotype sensitive (S) flag,[2]; progeny isolate 155 of cross IPO323XD024,1
same,Phenotype sensitive (S) flag,[2]; progeny isolate 156 of cross IPO323XD024,1
same,Phenotype sensitive (S) flag,[2]; progeny isolate 158 of cross IPO323XD024,1
same,Phenotype sensitive (S) flag,[2]; progeny isolate 161 of cross IPO323XD024,1
same,Phenotype sensitive (S) flag,[2]; progeny isolate 162 of cross IPO323XD024,1
same,Phenotype sensitive (S) flag,[2]; progeny isolate 163 of cross IPO323XD024,1
same,Phenotype sensitive (S) flag,[2]; progeny isolate 166 of cross IPO323XD024,1
same,Phenotype sensitive (S) flag,[2]; progeny isolate 168 of cross IPO323XD024,1
same,Phenotype sensitive (S) flag,[2]; progeny isolate 169 of cross IPO323XD024,1
same,Phenotype sensitive (S) flag,[2]; progeny isolate 173 of cross IPO323XD024,1
same,Phenotype sensitive (S) flag,[2]; progeny isolate 174 of cross IPO323XD024,1
same,Phenotype sensitive (S) flag,[2]; progeny isolate 175 of cross IPO323XD024,1
same,Phenotype sensitive (S) flag,[2]; progeny isolate 176 of cross IPO323XD024,1
same,Phenotype sensitive (S) flag,[2]; progeny isolate 177 of cross IPO323XD024,1
same,Phenotype sensitive (S) flag,[2]; progeny isolate 182 of cross IPO323XD024,1
same,Phenotype sensitive (S) flag,[2]; progeny isolate 184 of cross IPO323XD024,1
same,Phenotype sensitive (S) flag,[2]; progeny isolate 185 of cross IPO323XD024,1
same,"phenotype flag, sensitive (S)","[2]; progeny isolate 192, cross IPO323XD024",1
same,"phenotype flag, sensitive (S)","[2]; progeny isolate 193, cross IPO323XD024",1
same,"phenotype flag, sensitive (S)","[2]; progeny isolate 195, cross IPO323XD024",1
same,"phenotype flag, sensitive (S)","[2]; progeny isolate 197, cross IPO323XD024",1
same,"phenotype flag, sensitive (S)","[2]; progeny isolate 201, cross IPO323XD024",1
same,"phenotype flag, sensitive (S)","[2]; progeny isolate 207, cross IPO323XD024",1
same,"phenotype flag, sensitive (S)","[2]; progeny isolate 209, cross IPO323XD024",1
same,"phenotype flag, sensitive (S)","[2]; progeny isolate 210, cross IPO323XD024",1
same,"phenotype flag, sensitive (S)","[2]; progeny isolate 211, cross IPO323XD024",1
same,"phenotype flag, sensitive (S)","[2]; progeny isolate 215, cross IPO323XD024",1
same,"phenotype flag, sensitive (S)","[2]; progeny isolate 217, cross IPO323XD024",1
same,"phenotype flag, sensitive (S)","[2]; progeny isolate 218, cross IPO323XD024",1
same,"phenotype flag, sensitive (S)","[2]; progeny isolate 220, cross IPO323XD024",1
same,"phenotype flag, sensitive (S)","[2]; progeny isolate 221, cross IPO323XD024",1
same,"phenotype flag, sensitive (S)","[2]; progeny isolate 223, cross IPO323XD024",1
same,"phenotype flag, sensitive (S)","[2]; progeny isolate 224, cross IPO323XD024",1
same,"phenotype flag, sensitive (S)","[2]; progeny isolate 225, cross IPO323XD024",1
same,"phenotype flag, sensitive (S)","[2]; progeny isolate 227, cross IPO323XD024",1
same,"phenotype flag, sensitive (S)","[2]; progeny isolate 228, cross IPO323XD024",1
same,"phenotype flag, sensitive (S)","[2]; progeny isolate 229, cross IPO323XD024",1
same,Phenotype scored sensitive (S),[2]; progeny isolate 230 of cross IPO323 x D024,1
same,Phenotype scored sensitive (S),[2]; progeny isolate 235 of cross IPO323 x D024,1
same,Phenotype scored sensitive (S),[2]; progeny isolate 237 of cross IPO323 x D024,1
same,Phenotype scored sensitive (S),[2]; progeny isolate 238 of cross IPO323 x D024,1
same,Phenotype scored sensitive (S),[2]; progeny isolate 239 of cross IPO323 x D024,1
same,Phenotyping Growth Fluopyram 10ppm Sensitive,"[2]; progeny strain 3, cross IPO323XD024",1
same,Phenotyping Growth Fluopyram 10ppm Sensitive,"[2]; progeny strain 10, cross IPO323XD024",1
same,Phenotyping Growth Fluopyram 10ppm Sensitive,"[2]; progeny strain 13, cross IPO323XD024",1
same,Phenotyping Growth Fluopyram 10ppm Sensitive,"[2]; progeny strain 14, cross IPO323XD024",1
same,Phenotyping Growth Fluopyram 10ppm Sensitive,"[2]; progeny strain 16, cross IPO323XD024",1
same,Phenotyping Growth Fluopyram 10ppm Sensitive,"[2]; progeny strain 17, cross IPO323XD024",1
same,Phenotyping Growth Fluopyram 10ppm Sensitive,"[2]; progeny strain 18, cross IPO323XD024",1
same,Phenotyping Growth Fluopyram 10ppm Sensitive,"[2]; progeny strain 19, cross IPO323XD024",1
same,Phenotyping Growth Fluopyram 10ppm Sensitive,"[2]; progeny strain 20, cross IPO323XD024",1
same,Phenotyping Growth Fluopyram 10ppm Sensitive,"[2]; progeny strain 21, cross IPO323XD024",1
same,Phenotyping Growth Fluopyram 10ppm Sensitive,"[2]; progeny strain 23, cross IPO323XD024",1
same,Phenotyping Growth Fluopyram 10ppm Sensitive,"[2]; strain D024 (parent), cross IPO323XD024, 0 = not",0
same,Phenotyping Growth Fluopyram 10ppm Sensitive,"[2]; strain IPO323 (parent), cross IPO323XD024, 0 = not",1
